Key:
[1] = system: human B cells; test: human B cell proliferation (CFSE); format: cell-based; details: CD40L + anti-human IgM/IgG + hIL-2 + hIL-21, 120 h
Description: We also tested the effects of these inhibitors on human B cell proliferation stimulated with human CD40L + anti-human IgM/IgG + hIL-2 + hIL-21. We stimulated CFSE-stained human B cells for 120 h in the presence of GDC-0941, IPI-3063, IPI-443, or AS-252424 at various concentrations. […] IPI-443 caused a dose-dependent decrease in proliferation, whereas AS-252424 had no effect.
(A–C) Purified human B cells were pretreated with inhibitors for 30 min, then stimulated with human CD40L + anti-human IgM/IgG + human IL-2 + human IL-21 for 120 h. Concentrations used were 1 nM, 10 nM, 100 nM, and 1 µM for IPI-443, and 0.1, 1, 10, and 100 nM for IPI-3063. AS252424 concentrations were 100 nM, 300 nM, and 1 µM, and GDC-0941 was at 500 nM. Total numbers and percent divided were determined by the number of CD19^+7AAD^−CFSE^lo cells. Samples were collected by time (*P < 0.05, **P < 0.001, ***P < 0.0001 one-way ANOVA with Newman–Keuls multiple comparison test).
Peripheral blood from normal volunteers was obtained through an Institutional Review Board-approved protocol. Peripheral blood mononuclear cells (PBMCs) were first purified from blood by density gradient centrifugation using Ficoll-Paque. […] B-cell purity was increased from 4% to >70% as measured by FACS analysis (FACSCalibur and CellQuest software; BD Biosciences) using anti-CD19 PE conjugated antibody (eBioscience). […]

[2] = system: mouse B cells; test: mouse B cell proliferation (CFSE); format: cell-based; details: αIgM + IL-4, 72 h
Description: Next, we evaluated the effects of PI3K inhibitors on B cell proliferation. We stimulated CFSE-stained cells with αIgM + IL-4 or with LPS for 72 h, or with αCD40 + IL-4 or LPS + IL-4 for 96 h. Cells were treated with vehicle or GDC-0941, IPI-3063, IPI-443, or AS-252424 at various concentrations. […] IPI-443 caused a dose-dependent decrease in proliferation, whereas AS-252424 had no effect. […] In B cells stimulated with LPS + IL-4, the inhibitors had similar trends, but with greater variability (Figure 3D). […] Overall, these experiments establish that the selective p110δ inhibitor IPI-3063 is a very potent inhibitor of B cell survival and proliferation in vitro. In addition, selective p110γ inhibition alone had no effect on B cell survival or proliferation.
Total splenocytes (A,B) or purified B cells (C–E) were pretreated with inhibitors for 30 min, then stimulated with (A,B) αIgM + IL-4 for 72 h, (C–E) LPS + IL-4 for 96 h, LPS for 72 h, or αCD40 + IL-4 for 96 h. […] The experiments in panel (C) include low concentrations of IPI-3063 (0.01 and 0.1 nM) Total numbers were determined by the number of B220^+7AAD^−CFSE^lo cells. […]
Before cell surface staining, cells were incubated with TruStain fcX in FACS buffer (0.5% BSA + 0.02% NaN3 in 1× HBSS) to block Fc receptors for 10 min on ice. […] Flow cytometric data were analyzed using FlowJo software (TreeStar). […]

Row | Compound | effect on proliferation [1] | effect on proliferation [2] | concentration that significantly reduces proliferation [1] | concentration that blocks/decreases proliferation [2]
1 | O=C1NC(=O)/C(=C/c2ccc(-c3ccc(F)cc3O)o2)S1 [AS-252424, reference compound] | no effect | no effect | – | –
2 | CC(C)n1c([C@H](C)Nc2ncnc(N)c2C#N)cc2cccc(-c3ccc(=O)n(C)c3)c2c1=O [IPI-3063] | – | – | ≥ 1 nM | 1 nM

Source: article PMC5491903, “The Selective Phosphoinoside-3-Kinase p110δ Inhibitor IPI-3063 Potently Suppresses B Cell Survival, Proliferation, and Differentiation” (Frontiers in Immunology, 2017)
